Data taken from patent US12583858B2 (Genentech, Inc., priority 2015, dated 2026).

The molecules below were run against T1, TDO2 (Homo sapiens, UniProt P48775) (assay: TDO2 cell assay (NFK GreenScreen, SW48 cells)). Settings: SW48 cells (high TDO expressing), 200 uM tryptophan, 24 hours; Table 3; read-out: TDO2 Cell Fluor EC50.
T1 construct: decreased levels of NFK in SW48 cells (high TDO expressing cells)
Type: cell-based

T1 sequence (P48775 whole entry): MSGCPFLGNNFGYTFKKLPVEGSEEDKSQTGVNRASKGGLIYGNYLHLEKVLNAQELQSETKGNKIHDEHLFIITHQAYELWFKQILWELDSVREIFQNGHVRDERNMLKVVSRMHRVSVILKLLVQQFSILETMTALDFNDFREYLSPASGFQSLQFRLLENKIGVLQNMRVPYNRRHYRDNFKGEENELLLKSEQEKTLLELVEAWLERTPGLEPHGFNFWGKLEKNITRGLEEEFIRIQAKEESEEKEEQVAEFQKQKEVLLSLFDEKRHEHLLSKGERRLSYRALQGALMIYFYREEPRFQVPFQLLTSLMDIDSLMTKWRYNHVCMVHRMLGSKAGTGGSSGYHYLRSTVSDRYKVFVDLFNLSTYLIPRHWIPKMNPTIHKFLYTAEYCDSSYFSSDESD

Structure (SMILES)	EC50 [µM]
O=S1(=O)CC(O)C(C2c3ccccc3-c3cncn32)C1 (single isomer, unassigned) [Example 38d]	3.8
O=S(=O)(C1CC1)N1CC[C@@H]([C@@H]2c3ccccc3-c3cncn32)[C@H](O)C1 (single isomer, unassigned) [Example 81b]	> 25
Nc1ccc2c(n1)CCC(C1c3ccccc3-c3cncn31)C2O (single isomer, unassigned) [Example 121b]	> 25
O=S(=O)(C1CC1)N1CC[C@@H](O)[C@H]([C@H]2c3ccccc3-c3cncn32)C1 (single isomer, unassigned) [Example 70a]	> 25
CCS(=O)(=O)N1CCC2(CCC(C3c4ccccc4-c4cncn43)C2O)CC1 (single isomer, unassigned) [Example 76a]	9.5
CN(C)C(=O)c1ccc2c(c1)CCC(C1c3ccccc3-c3cncn31)C2O (single isomer, unassigned) [Example 98c]	0.18
OC1CCCCCC1C1c2ccccc2-c2cncn21 (single isomer, unassigned) [Example 115c, 2-(5H-imidazo[5,1-a]isoindol-5-yl)cycloheptan-1-ol]	0.05
OC1(C2c3ccccc3-c3cncn32)COC1 (racemic) [Example 48, 3-(5H-imidazo[5,1-a]isoindol-5-yl)oxetan-3-ol]	7.26
CS(=O)(=O)N1CC[C@@H]([C@@H]2c3ccccc3-c3cncn32)[C@H](O)C1 [Example 64a, (3S,4S)-4-((R)-5H-imidazo[5,1-a]isoindol-5-yl)-1-(methylsulfonyl)piperidin-3-ol]	> 25
CC(C)C(O)C1c2ccccc2-c2cncn21 (single isomer, unassigned) [Example 51c]	0.11
O[C@H]1c2ncccc2CC[C@H]1[C@H]1c2ccccc2-c2cncn21 [Example 63c, (7S,8R)-7-((S)-5H-imidazo[5,1-a]isoindol-5-yl)-5,6,7,8-tetrahydroquinolin-8-ol]	20
Nc1ncc2c(n1)CCC(C1c3ccccc3-c3cncn31)C2O (single isomer, unassigned) [Example 111e]	5.7
NC(=O)c1ccc2c(n1)CCC(C1c3ccccc3-c3cncn31)C2O (single isomer, unassigned) [Example 104a]	2.2
NS(=O)(=O)N1CC[C@@H]([C@@H]2c3ccccc3-c3cncn32)[C@H](O)C1 (single isomer, unassigned) [Example 39c]	> 25
OC1COCC1C1c2ccccc2-c2cncn21 (single isomer, unassigned) [Example 26a]	> 25
O[C@@H]1CCCC[C@H]1[C@H]1c2ccccc2-c2cncn21 [Example 03b, (1R,2S)-2-((S)-5H-imidazo[5,1-a]isoindol-5-yl)cyclohexan-1-ol]	0.083
OC1CCC(F)(F)CC1C1c2ccccc2-c2cncn21 (single isomer, unassigned) [Example 18d, 4,4-difluoro-2-(5H-imidazo[5,1-a]isoindol-5-yl)cyclohexan-1-ol]	8
CS(=O)(=O)N1CCC(C2c3ccc(F)cc3-c3cncn32)C(O)C1 (single isomer, unassigned) [Example 119c]	0.22
O[C@@H]1CCOC[C@H]1[C@H]1c2ccccc2-c2cncn21 [Example 05b, (3R,4R)-3-((S)-5H-imidazo[5,1-a]isoindol-5-yl)-tetrahydro-2H-pyran-4-ol]	0.21
OC1c2cccnc2CCC1C1c2ccccc2-c2cncn21 (single isomer, unassigned) [Example 31c]	17
N#CCN1CCC(O)C(C2c3ccccc3-c3cncn32)C1 (single isomer, unassigned) [Example 58a]	0.36
OC1CCOCC1C1c2c(F)cccc2-c2cncn21 (single isomer, unassigned) [Example 73a]	6.4
OC1c2cc(CF)nn2CCC1C1c2ccccc2-c2cncn21 (single isomer, unassigned) [Example 95b]	0.24
CC(C)S(=O)(=O)N1CC[C@@H]([C@H]2c3ccccc3-c3cncn32)[C@H](O)C1 (single isomer, unassigned) [Example 80a]	> 25
O=c1cccc2n1CCC(C1c3ccccc3-c3cncn31)C2O (single isomer, unassigned) [Example 29c, 1-hydroxy-2-(5H-imidazo[5,1-a]isoindol-5-yl)-3,4-dihydro-1H-quinolizin-6(2H)-one]	24

Further lines, results first:

EC50 [µM]	Structure (SMILES)
> 25	OC1c2c(F)cnn2CCC1C1c2ccccc2-c2cncn21 (single isomer, unassigned) [Example 151c]
14	OC(c1ccncc1)C1c2ccccc2-c2cncn21 (single isomer, unassigned) [Example 152a]
9.7	O[C@H](C1CCOCC1)[C@@H]1c2ccccc2-c2cncn21 [Example 138a, (R)—((S)-5H-imidazo[5,1-a]isoindol-5-yl)(tetrahydro-2H-pyran-4-yl)methanol]
> 25	OC1c2[nH]ncc2CCC1C1c2ccccc2-c2cncn21 (single isomer, unassigned) [Example 157f]
> 25	CCC(O)C1c2ccccc2-c2cncn21 (single isomer, unassigned) [Example 137a]
0.79	CS(=O)(=O)N1CCC2(CC1)CC(C1c3ccccc3-c3cncn31)C2O (single isomer, unassigned) [Example 179g]
24	Nc1ccc2c(n1)CCC(C1c3ccccc3-c3cncn31)C2O (single isomer, unassigned) [Example 121f]
1.1	N#CC1CCC(O)(C2c3ccccc3-c3cncn32)CC1 (single isomer, unassigned) [Example 145b]
0.22	Nc1ccc2c(n1)CCC(C1c3ccccc3-c3cncn31)C2O (single isomer, unassigned) [Example 121c]
0.2	OC1c2cccn2CCC1C1c2ccccc2-c2cncn21 (single isomer, unassigned) [Example 136g]
> 25	NS(=O)(=O)N1CCC2(CC1)CC(C1c3ccccc3-c3cncn31)C2O (single isomer, unassigned) [Example 181b]
23	O[C@H]1c2[nH]ncc2CC[C@H]1[C@H]1c2ccccc2-c2cncn21 [Example 157d, (6S,7R)-6-((S)-5H-imidazo[5,1-a]isoindol-5-yl)-4,5,6,7-tetrahydro-1H-indazol-7-ol]
0.14	Cc1nc2c(o1)CCC(C1c3ccccc3-c3cncn31)C2O (single isomer, unassigned) [Example 168a]
0.62	N#CC1(C(O)C2c3ccccc3-c3cncn32)CC1 (single isomer, unassigned) [Example 153a]
0.76	CC(C)(C)OC(=O)N1CCCC(O)(C2c3ccccc3-c3cncn32)C1 (single isomer, unassigned) [Example 127c]
0.096	OC1c2[nH]ncc2CCC1C1c2ccccc2-c2cncn21 (single isomer, unassigned) [Example 157e]
> 25	OC(c1ccncc1)C1c2ccccc2-c2cncn21 (single isomer, unassigned) [Example 152b]
16	NC(=O)C1([C@@H](O)[C@H]2c3ccccc3-c3cncn32)CC1 [Example 165a, 1-((R)-hydroxy((R)-5H-imidazo[5,1-a]isoindol-5-yl)methyl)cyclopropane-1-carboxamide]
3	CC(C)C(O)C1c2ccc(F)cc2-c2cncn21 (single isomer, unassigned) [Example 135c]
